Assay results reported in ChEMBL document CHEMBL1147624, “Inhibitors of hepatitis C virus NS3.4A protease 2. Warhead SAR and optimization” (Bioorg Med Chem Lett, 2004).
Where a SMILES comes first, the peptide text is derived from it. [ ]: non-standard residue; d: D form. The star is where a group is joined. Pyrazinecarbonyl = O=C(c1cnccn1)*; Hyp = O=C(O)[C@@H]1C[C@@H](O)CN1; Abu = CC[C@H](N)C(=O)O; Bn = c1ccc(C*)cc1

Columns and labels:
NS3 = NS3 (Hepatitis C virus, UniProt A3EZJ3); assay: Binding inhibition of hepatitis C virus NS3.4A protease 2 using p-nitroaniline assay (pNA); parameters: species or system Hepacivirus hominis
Huh-7 [1] = assay: Reduction of HCV RNA in 48 hr compound treated Huh 7 cells was determined by quantitative RT-PCR-based […] assay; format: functional; conditions: Homo sapiens, Huh-7, 48 h
Huh-7 [2] = assay: Cytotoxicity of compound was determined by MTS-based cell viability assay in Huh 7 cells; format: functional; conditions: Homo sapiens
[3] = biological target: T1, Hepatitis C virus serine protease, NS3/NS4A (Hepatitis C virus, UniProt D2K2A8+A3EZI9); assay: Binding inhibition of hepatitis C virus NS3.4A protease 2 using a reverse phase HPLC based assay; format: protein-complex assay, Hepacivirus hominis
[4] = biological target: T1, Hepatitis C virus serine protease, NS3/NS4A; assay: Binding inhibition of hepatitis C virus NS3.4A protease 2 using p-nitroaniline assay (pNA); <0.2 (0.18); format: protein-complex assay, Hepacivirus hominis
[5] = biological target: T1, Hepatitis C virus serine protease, NS3/NS4A; assay: Binding inhibition of hepatitis C virus NS3.4A protease 2 using p-nitroaniline assay (pNA); <0.2 (0.10); format: protein-complex assay, Hepacivirus hominis
[6] = biological target: T1, Hepatitis C virus serine protease, NS3/NS4A; assay: Binding inhibition of hepatitis C virus NS3.4A protease 2 using p-nitroaniline assay (pNA); <0.2 (0.15); format: protein-complex assay, Hepacivirus hominis
[7] = biological target: T1, Hepatitis C virus serine protease, NS3/NS4A; assay: Binding inhibition of hepatitis C virus NS3.4A protease 2 was determined; format: protein-complex assay, Hepacivirus hominis
[8] = biological target: T1, Hepatitis C virus serine protease, NS3/NS4A; assay: Binding inhibition of hepatitis C virus NS3.4A protease 2 using a reverse phase HPLC based assay; <0.2 (0.15); format: protein-complex assay, Hepacivirus hominis
[9] = biological target: T1, Hepatitis C virus serine protease, NS3/NS4A; assay: Binding inhibition of hepatitis C virus NS3.4A protease 2 using p-nitroaniline assay (pNA); <0.2 (0.03); format: protein-complex assay, Hepacivirus hominis

T1 sequence (D2K2A8 whole entry): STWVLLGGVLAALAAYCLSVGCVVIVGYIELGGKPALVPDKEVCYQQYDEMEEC
T1 sequence (A3EZI9 whole entry): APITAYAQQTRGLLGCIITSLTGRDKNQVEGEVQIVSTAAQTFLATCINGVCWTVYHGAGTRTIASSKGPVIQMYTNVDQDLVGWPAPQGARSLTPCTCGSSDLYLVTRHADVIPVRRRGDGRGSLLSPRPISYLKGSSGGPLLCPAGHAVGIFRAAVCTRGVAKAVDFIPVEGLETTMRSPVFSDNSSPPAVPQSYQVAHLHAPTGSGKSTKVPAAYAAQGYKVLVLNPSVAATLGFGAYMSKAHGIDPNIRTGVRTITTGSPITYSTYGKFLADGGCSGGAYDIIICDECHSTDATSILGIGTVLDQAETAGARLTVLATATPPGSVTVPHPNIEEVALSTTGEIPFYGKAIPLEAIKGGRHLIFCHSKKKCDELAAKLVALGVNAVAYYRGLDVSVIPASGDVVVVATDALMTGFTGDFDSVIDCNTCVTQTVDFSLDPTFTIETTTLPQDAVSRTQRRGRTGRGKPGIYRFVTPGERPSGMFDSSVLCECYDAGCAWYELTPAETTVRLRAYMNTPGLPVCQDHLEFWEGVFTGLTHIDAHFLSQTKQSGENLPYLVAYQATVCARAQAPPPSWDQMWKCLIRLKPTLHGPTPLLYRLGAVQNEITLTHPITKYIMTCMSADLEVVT
Chain of NS3 (A3EZJ3 whole entry): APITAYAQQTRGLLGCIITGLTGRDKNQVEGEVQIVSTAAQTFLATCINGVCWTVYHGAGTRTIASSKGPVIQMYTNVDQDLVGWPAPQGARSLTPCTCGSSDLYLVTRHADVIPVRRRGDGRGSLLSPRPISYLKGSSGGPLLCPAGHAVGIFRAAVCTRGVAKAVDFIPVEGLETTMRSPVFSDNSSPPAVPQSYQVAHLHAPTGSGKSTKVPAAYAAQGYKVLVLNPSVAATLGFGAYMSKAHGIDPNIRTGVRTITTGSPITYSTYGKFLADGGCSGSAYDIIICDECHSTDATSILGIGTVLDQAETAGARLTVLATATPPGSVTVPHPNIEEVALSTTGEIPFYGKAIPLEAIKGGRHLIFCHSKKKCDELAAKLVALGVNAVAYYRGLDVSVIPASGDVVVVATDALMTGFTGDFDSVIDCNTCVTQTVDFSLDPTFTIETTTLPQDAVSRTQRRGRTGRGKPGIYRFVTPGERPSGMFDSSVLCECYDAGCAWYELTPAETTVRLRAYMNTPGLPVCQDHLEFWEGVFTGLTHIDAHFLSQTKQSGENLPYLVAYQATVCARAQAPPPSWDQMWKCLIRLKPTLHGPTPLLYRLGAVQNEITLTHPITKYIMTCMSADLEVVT

Row | SMILES | Ki (NS3) | IC50 (Huh-7 [1]) | CC50 (Huh-7 [2]) | further results
1 | CC[C@H](NC(=O)[C@@H]1C[C@@H](OCc2ccccc2)CN1C(=O)[C@@H](NC(=O)[C@@H](NC(=O)c1cnccn1)C(C)C)C(C)C)C(=O)C(=O)N[C@@H](C)c1ccccc1 [listing 1 of 2 here] |  |  | > 100 µM | 
2 | CC[C@H](NC(=O)[C@@H]1C[C@@H](OCc2ccccc2)CN1C(=O)[C@@H](NC(=O)[C@@H](NC(=O)c1cnccn1)C(C)C)C(C)C)C(=O)c1nnc(-c2ccccc2)o1 | 35 µM |  |  | 
3 | CCCC(NC(=O)[C@@H]1C[C@@H](OC(=O)N2CCc3ccccc3C2)CN1C(=O)[C@H](NC(=O)[C@H](NC(=O)c1cnccn1)C(C)C)C(C)C)C(=O)C(=O)NC(C)C(=O)O (stereo partly drawn) |  |  |  | IC50 [3]: 130 nM; Ki [4]: 200 nM
4 | CCCC(NC(=O)[C@@H]1C[C@@H](OC(=O)N2CCc3ccccc3C2)CN1C(=O)[C@H](NC(=O)[C@H](NC(=O)c1cnccn1)C(C)C)C(C)C)C(=O)C(=O)N[C@@H](C)c1ccccc1 (stereo partly drawn) |  | > 0.31 µM | > 16 µM | IC50 [3]: 220 nM; Ki [5]: < 200 nM
5 | CCCC(NC(=O)[C@@H]1C[C@@H](OC(=O)N2CCc3ccccc3C2)CN1C(=O)[C@H](NC(=O)[C@H](NC(=O)c1cnccn1)C(C)C)C(C)C)C(=O)C(=O)NC1CC1 (stereo partly drawn) |  | > 2.3 µM | > 100 µM | IC50 [3]: 420 nM; Ki [6]: < 220 nM
6 | CCCC(NC(=O)[C@@H]1C[C@@H](OC(=O)N2CCc3ccccc3C2)CN1C(=O)[C@H](NC(=O)[C@H](NC(=O)c1cnccn1)C(C)C)C(C)C)C(=O)C(=O)NCc1ccccc1 (stereo partly drawn) |  | > 3.2 µM | > 30 µM | IC50 [3]: 220 nM; Ki [6]: < 200 nM
7 | CC[C@@H](C=O)NC(=O)[C@@H]1CC(OC(=O)C2CCc3ccccc3C2)CN1C(=O)[C@@H](NC(=O)[C@@H](NC(=O)c1cnccn1)C(C)C)C(C)C (stereo partly drawn) |  |  |  | Ki [7]: 890 nM
8 | CCOC(=O)C(F)(F)C(=O)C(CC)NC(=O)C1CC(OCc2ccccc2)CN1C(=O)[C@H](NC(=O)[C@H](NC(=O)c1cnccn1)C(C)C)C(C)C (single isomer, unassigned) | > 50 µM |  |  | 
9 | CC[C@H](NC(=O)[C@@H]1C[C@@H](OCc2ccccc2)CN1C(=O)[C@@H](NC(=O)[C@@H](NC(=O)c1cnccn1)C(C)C)C(C)C)C(=O)C(=O)N1CCCC1 | 32 µM |  |  | 
10 | CCCC(NC(=O)[C@@H]1C[C@@H](OC(=O)N2CCc3ccccc3C2)CN1C(=O)[C@H](NC(=O)[C@H](NC(=O)c1cnccn1)C(C)C)C(C)C)C(=O)C(=O)NC(C)(C)C (stereo partly drawn) | 6.9 µM |  |  | 
11 | CC[C@H](NC(=O)[C@@H]1C[C@@H](OCc2ccccc2)CN1C(=O)[C@@H](NC(=O)[C@@H](NC(=O)c1cnccn1)C(C)C)C(C)C)C(=O)C(=O)c1ccccc1 | 10 µM |  |  | 
12 | CCCC(NC(=O)[C@@H]1C[C@@H](OC(=O)N2CCc3ccccc3C2)CN1C(=O)[C@H](NC(=O)[C@H](NC(=O)c1cnccn1)C(C)C)C(C)C)C(=O)C(=O)N[C@@H](C)C(=O)c1cccc2ccccc12 (stereo partly drawn) |  |  |  | IC50 [3]: 750 nM; Ki [4]: < 200 nM
13 | CCC(NC(=O)[C@@H]1C[C@@H](OCc2ccccc2)CN1C(=O)[C@H](NC(=O)[C@H](NC(=O)c1cnccn1)C(C)C)C(C)C)C(=O)CCl (stereo partly drawn) | > 50 µM |  |  | 
14 | CCC(NC(=O)[C@@H]1C[C@@H](OCc2ccccc2)CN1C(=O)[C@H](NC(=O)[C@H](NC(=O)c1cnccn1)C(C)C)C(C)C)C(=O)C(F)(F)F (stereo partly drawn) | > 50 µM |  |  | 
15 | CC[C@@H](C=O)NC(=O)[C@@H]1C[C@@H](OCc2ccccc2)CN1C(=O)[C@@H](NC(=O)[C@@H](NC(=O)c1cnccn1)C(C)C)C(C)C (Pyrazinecarbonyl-VV[Hyp](Bn)[Abu]-aldehyde) | 16 µM |  |  | 
16 | CC[C@H](NC(=O)[C@@H]1C[C@@H](OCc2ccccc2)CN1C(=O)[C@@H](NC(=O)[C@@H](NC(=O)c1cnccn1)C(C)C)C(C)C)C(=O)O (Pyrazinecarbonyl-VV[Hyp](Bn)[Abu]-OH) | > 50 µM |  |  | 
17 | CCC(NC(=O)[C@@H]1C[C@@H](OCc2ccccc2)CN1C(=O)[C@H](NC(=O)[C@H](NC(=O)c1cnccn1)C(C)C)C(C)C)C(=O)C(F)(F)C(F)(F)F (stereo partly drawn) | 17.5 µM |  |  | 
18 | CCCC(NC(=O)[C@@H]1C[C@@H](OC(=O)N2CCc3ccccc3C2)CN1C(=O)[C@H](NC(=O)[C@H](NC(=O)c1cnccn1)C(C)C)C(C)C)C(=O)C(=O)NCC(=O)O (stereo partly drawn) |  | > 10 µM | > 100 µM | Ki [6]: < 200 nM; IC50 [8]: 37 nM
19 | CC[C@H](NC(=O)[C@@H]1C[C@@H](OCc2ccccc2)CN1C(=O)[C@@H](NC(=O)[C@@H](NC(=O)c1cnccn1)C(C)C)C(C)C)C(=O)C(=O)N[C@H](C)c1ccccc1 | 17 µM |  |  | 
20 | CCCC(NC(=O)[C@@H]1C[C@@H](OC(=O)N2CCc3ccccc3C2)CN1C(=O)[C@H](NC(=O)[C@H](NC(=O)c1cnccn1)C(C)C)C(C)C)C(=O)C(=O)N(C)CC(=O)O (stereo partly drawn) | 5.23 µM |  |  | 
21 | CCCC(NC(=O)[C@@H]1CC(OC(=O)N2CCc3ccccc3C2)CN1C(=O)[C@H](NC(=O)[C@H](NC(=O)c1cnccn1)C(C)C)C(C)C)C(=O)C(=O)c1ccccc1 (single isomer, unassigned) |  | > 10 µM | > 100 µM | IC50 [3]: 26 nM; Ki [9]: < 200 nM
22 | CC[C@H](NC(=O)[C@@H]1C[C@@H](OCc2ccccc2)CN1C(=O)[C@@H](NC(=O)[C@@H](NC(=O)c1cnccn1)C(C)C)C(C)C)C(=O)C(C)=O | 50 µM |  |  | 
23 | CCCC(NC(=O)[C@@H]1C[C@@H](OC(=O)N2CCc3ccccc3C2)CN1C(=O)[C@H](NC(=O)[C@H](NC(=O)c1cnccn1)C(C)C)C(C)C)C(=O)C(=O)NCC(=N)N (stereo partly drawn) | 5.76 µM |  |  | 
24 | CCCC(NC(=O)[C@@H]1C[C@@H](OC(=O)N2CCc3ccccc3C2)CN1C(=O)[C@H](NC(=O)[C@H](NC(=O)c1cnccn1)C(C)C)C(C)C)C(=O)C(=O)NCc1ccco1 (stereo partly drawn) | 4.72 µM |  |  | 

Further lines, with some results ahead:

Row | Ki (NS3) | IC50 (Huh-7 [1]) | SMILES | CC50 (Huh-7 [2]) | further results
25 | 0.54 µM |  | CCCC(NC(=O)[C@@H]1C[C@@H](OC(=O)N2CCc3ccccc3C2)CN1C(=O)[C@H](NC(=O)[C@H](NC(=O)c1cnccn1)C(C)C)C(C)C)C(=O)C(=O)NC(CO)C(=O)O (stereo partly drawn) |  | 
26 | 0.52 µM | > 10 µM | CCCC(NC(=O)[C@@H]1C[C@@H](OC(=O)N2CCc3ccccc3C2)CN1C(=O)[C@H](NC(=O)[C@H](NC(=O)c1cnccn1)C(C)C)C(C)C)C(=O)C(=O)NC(C)C (stereo partly drawn) | > 100 µM | 
27 | 0.97 µM | > 10.3 µM | CCCC(NC(=O)[C@@H]1CC(OC(=O)N2CCc3ccccc3C2)CN1C(=O)[C@H](NC(=O)[C@H](NC(=O)c1cnccn1)C(C)C)C(C)C)C(=O)C(=O)N1CCC1 (single isomer, unassigned) | > 100 µM | 
28 | 0.92 µM | > 4.8 µM | CC[C@H](NC(=O)[C@@H]1C[C@@H](OCc2ccccc2)CN1C(=O)[C@@H](NC(=O)[C@@H](NC(=O)c1cnccn1)C(C)C)C(C)C)C(=O)C(=O)N[C@@H](C)c1ccccc1 [listing 2 of 2 here] |  | 
29 | 1.63 µM |  | CCCC(NC(=O)[C@@H]1C[C@@H](OC(=O)N2CCc3ccccc3C2)CN1C(=O)[C@H](NC(=O)[C@H](NC(=O)c1cnccn1)C(C)C)C(C)C)C(=O)C(=O)N(CC(=O)O)c1ccccc1 (stereo partly drawn) |  | 
30 | 1.6 µM |  | CCCC(NC(=O)[C@@H]1CC(OC(=O)N2CCc3ccccc3C2)CN1C(=O)[C@H](NC(=O)[C@H](NC(=O)c1cnccn1)C(C)C)C(C)C)C(=O)C(=O)N1C[C@@H]1c1ccccc1 (single isomer, unassigned) |  | 
31 | 0.43 µM | > 10 µM | CCCC(NC(=O)[C@@H]1CC(OC(=O)N2CCc3ccccc3C2)CN1C(=O)[C@H](NC(=O)[C@H](NC(=O)c1cnccn1)C(C)C)C(C)C)C(=O)C(=O)Cc1ccccc1 (single isomer, unassigned) | > 100 µM | 
32 | 0.21 µM | > 10 µM | CCCC(NC(=O)[C@@H]1C[C@@H](OC(=O)N2CCc3ccccc3C2)CN1C(=O)[C@H](NC(=O)[C@H](NC(=O)c1cnccn1)C(C)C)C(C)C)C(=O)C(=O)NCCc1ccccc1 (stereo partly drawn) | > 100 µM | IC50 [3]: 520 nM
33 | 2.7 µM |  | CC[C@H](NC(=O)[C@@H]1C[C@@H](OCc2ccccc2)CN1C(=O)[C@@H](NC(=O)[C@@H](NC(=O)c1cnccn1)C(C)C)C(C)C)C(=O)C(=O)C(C)C |  | 
34 | 0.8 µM | > 10.2 µM | CCCC(NC(=O)[C@@H]1C[C@@H](OC(=O)N2CCc3ccccc3C2)CN1C(=O)[C@H](NC(=O)[C@H](NC(=O)c1cnccn1)C(C)C)C(C)C)C(=O)C(=O)NC1CCC1 (stereo partly drawn) | > 100 µM | 
35 | 1.12 µM |  | CCCC(NC(=O)[C@@H]1C[C@@H](OC(=O)N2CCc3ccccc3C2)CN1C(=O)[C@H](NC(=O)[C@H](NC(=O)c1cnccn1)C(C)C)C(C)C)C(=O)C(=O)NCC#N (stereo partly drawn) |  | 
36 | 0.29 µM | > 10 µM | CCCC(NC(=O)[C@@H]1C[C@@H](OC(=O)N2CCc3ccccc3C2)CN1C(=O)[C@H](NC(=O)[C@H](NC(=O)c1cnccn1)C(C)C)C(C)C)C(=O)C(=O)NCc1nnn[nH]1 (stereo partly drawn) | > 100 µM | 
37 | 4 µM |  | CC[C@H](NC(=O)[C@@H]1C[C@@H](OCc2ccccc2)CN1C(=O)[C@@H](NC(=O)[C@@H](NC(=O)c1cnccn1)C(C)C)C(C)C)C(=O)C(=O)NCc1ccccc1 |  | 
